The text below walks through data of article PMC6572854, “Convergent allostery in ribonucleotide reductase” (Nature Communications, 2019).

Data set [1] has as its target T1, NrdE (holo-NrdE; class Ib RNR alpha subunit) (Bacillus subtilis, UniProt P50620).
T1 construct: tagless full-length (C-terminal residue V700), His6-SUMO tag cleaved, E. coli BL21(DE3); holo form co-purifies with dAMP; monomer, I-dimer, S-dimer or filament depending on nucleotides
Nature of the data set: crystal structure ([…] Å) and SAXS titration. Format: binding. Particulars: allosteric; M-site; 5 mM Mg-ATP with TTP and GDP; may have displaced GDP.

Data set [2] addresses T2, NrdEF (holo-NrdE + Mn-reconstituted NrdF) (Bacillus subtilis, UniProt P50620).
T2 construct: tagless NrdE (SUMO tag cleaved) plus His6-tagged NrdF, E. coli host; alpha2beta2 asymmetric unit of filament; both nucleotide sites lie on NrdE; NrdF modelled only as C-terminal polyalanine peptide; with Ribonucleoside-diphosphate reductase subunit beta NrdF
Nature of the data set: cryo-EM structure ([…] Å). The conditions noted are these: allosteric; S-site and I-site of NrdE in NrdEF filament; 100 µM dATP, 1 mM CDP, 15 mM MgCl2, pH 7.6. The format is binding.

Data set [3] deals with T1, NrdE (holo-NrdE; class Ib RNR alpha subunit). Nature of the data set: cryo-EM structure ([…] Å) and SAXS titration. Format: binding. Particulars: allosteric; S-site and I-site; 100 µM dATP, 1 mM CDP, 15 mM MgCl2, pH 7.6; dATP displaces co-purified dAMP at I-site.
The target is the same in data set [4]. Nature of the data set: crystal structure ([…] Å). The format is binding. Particulars: allosteric; I-site, displacing dAMP; presumed hydrolysis product of added ATP; with TTP and GDP or CDP.
In data set [5] the target is T3, Bacillus subtilis NrdE C382S, tagless (Bacillus subtilis, UniProt P50620 1-700, C382S).
T3 construct: NrdE, α subunit of the class Ib ribonucleotide reductase of Bacillus subtilis, with the catalytic cysteine C382 changed to serine; Used in all SAXS experiments where NrdF was added, to prevent changes in nucleotide concentrations (D1:p2); also called C382S holo-NrdE; C382S NrdE
T3 sequence: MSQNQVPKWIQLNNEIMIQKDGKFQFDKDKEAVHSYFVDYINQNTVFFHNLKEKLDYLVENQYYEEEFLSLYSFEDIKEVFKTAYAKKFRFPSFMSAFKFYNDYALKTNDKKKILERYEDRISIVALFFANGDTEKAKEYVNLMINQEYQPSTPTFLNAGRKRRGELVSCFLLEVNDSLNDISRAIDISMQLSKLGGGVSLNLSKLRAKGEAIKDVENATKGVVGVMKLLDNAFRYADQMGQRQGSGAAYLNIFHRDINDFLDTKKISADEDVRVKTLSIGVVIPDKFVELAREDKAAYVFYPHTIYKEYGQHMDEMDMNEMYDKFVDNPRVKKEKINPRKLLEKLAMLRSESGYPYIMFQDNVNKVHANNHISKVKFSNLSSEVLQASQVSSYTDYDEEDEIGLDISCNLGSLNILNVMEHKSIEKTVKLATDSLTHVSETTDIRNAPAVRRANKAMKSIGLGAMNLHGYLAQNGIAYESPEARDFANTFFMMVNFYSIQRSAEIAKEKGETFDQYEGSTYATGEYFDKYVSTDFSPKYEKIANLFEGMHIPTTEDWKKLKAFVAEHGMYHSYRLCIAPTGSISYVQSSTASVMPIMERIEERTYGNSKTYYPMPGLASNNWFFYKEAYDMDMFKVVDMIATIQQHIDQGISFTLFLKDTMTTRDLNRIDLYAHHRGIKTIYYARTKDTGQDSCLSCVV
Nature of the data set: SAXS titration; 0-20 µM Fe-NrdF titrated to 4 µM C382S holo-NrdE, 50 µM dATP, 1 mM CDP, assay buffer with 5% glycerol, 4 °C; singular value decomposition. Particulars: both partners purified.

Data set [6] concerns the molecule itself. Nature of the data set: SEC-SAXS; stoichiometric mixture of C382S holo-NrdE and NrdF with 1 mM ATP and 250 µM TTP, 4 °C. Background: Size exclusion chromatography separates by hydrodynamic size, large species first.
In data set [7] the target is T4, Bacillus subtilis class Ib ribonucleotide reductase alpha subunit NrdE, wild type, tagless (Bacillus subtilis, UniProt P50620 1-700).
T4 construct: NrdE, alpha subunit of the class Ib ribonucleotide reductase of Bacillus subtilis; tagless after SUMO protease; also called apo-NrdE (dAMP-free)
T4 sequence: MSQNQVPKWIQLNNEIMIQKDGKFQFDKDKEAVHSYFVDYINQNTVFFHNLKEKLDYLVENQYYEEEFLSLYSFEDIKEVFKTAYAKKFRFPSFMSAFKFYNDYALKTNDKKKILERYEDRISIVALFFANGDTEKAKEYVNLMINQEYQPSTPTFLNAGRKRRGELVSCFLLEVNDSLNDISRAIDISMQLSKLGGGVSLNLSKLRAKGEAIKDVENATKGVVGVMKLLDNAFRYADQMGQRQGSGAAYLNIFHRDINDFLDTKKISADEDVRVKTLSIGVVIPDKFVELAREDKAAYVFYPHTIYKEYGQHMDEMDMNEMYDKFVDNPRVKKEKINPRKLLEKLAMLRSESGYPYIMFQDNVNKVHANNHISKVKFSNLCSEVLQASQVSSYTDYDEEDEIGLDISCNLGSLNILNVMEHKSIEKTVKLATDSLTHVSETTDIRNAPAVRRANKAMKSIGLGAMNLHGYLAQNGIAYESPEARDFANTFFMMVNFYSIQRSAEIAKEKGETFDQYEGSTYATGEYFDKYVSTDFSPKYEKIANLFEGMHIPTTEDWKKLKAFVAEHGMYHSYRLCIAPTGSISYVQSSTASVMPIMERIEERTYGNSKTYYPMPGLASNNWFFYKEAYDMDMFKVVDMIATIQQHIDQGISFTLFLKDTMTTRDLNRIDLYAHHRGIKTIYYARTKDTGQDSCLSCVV
Nature of the data set: cryo-EM structure; 20 µM holo-NrdE with 20 or 40 µM Mn-reconstituted NrdF, 100 µM dATP, 1 mM CDP, diluted four-fold; NrdEF filament, 4.7 Å map. The conditions noted are these: both partners purified.

Data set [8] deals with the molecule itself. Nature of the data set: SEC-SAXS; 80 µM wt holo-NrdE loaded, 250 µM TTP, 1 mM ATP, assay buffer with 1% glycerol, 4 °C; fit of the dataset to I-dimer, S-dimer and monomer in OLIGOMER

The stoichiometry N is the number of molecules, sites or subunits per partner or assembly.

On to `Nc1ncnc2c1ncn2[C@@H]1O[C@H](COP(=O)(O)OP(=O)(O)OP(=O)(O)O)[C@@H](O)[C@H]1O` [ATP], for which, in data set [1], the “crystal structure (2.50, 2.55 Å) and SAXS titration” value is “we also observed nearby electron density for an ATP ligand with the adenine ring positioned”.

For the molecule `Nc1ncnc2c1ncn2[C@H]1C[C@H](O)[C@@H](COP(=O)(O)OP(=O)(O)OP(=O)(O)O)O1` [dATP], in data set [2], the “cryo-EM structure (4.7 Å)” value was “a dATP molecule at each S- and I-site”. For the same molecule, the “cryo-EM structure (6 Å) and SAXS titration” value in data set [3] is listed as “For both filaments, excess density at the S-site was modeled as dATP”.

For the molecule `Nc1ncnc2c1ncn2[C@@H]1O[C@H](COP(=O)(O)OP(=O)(O)O)[C@@H](O)[C@H]1O` [ADP], in data set [4], the “crystal structure (2.50, 2.55, 2.95 Å)” value is on record as “Electron density at the I-site showed strong evidence for an ADP ligand displacing dAMP”.

B1: Bacillus subtilis class Ib ribonucleotide reductase NrdF (β subunit), His6-tagged, metal-reconstituted (enzyme)
chain: MTKIYDAANWSKHEDDFTQMFYNQNVKQFWLPEEIALNGDLLTWKYLGKNEQDTYMKVLAGLTLLDTEQGNTGMPIVAEHVDGHQRKAVLNFMAMMENAVHAKSYSNIFMTLAPTETINEVFEWVKQNKYLQKKAQMIVGLYKAIQKDDEISLFKAMVASVYLESFLFYSGFYYPLYFYGQGKLMQSGEIINLILRDEAIHGVYVGLLAQEIYNKQTEEKKAELREFAIDLLNQLYENELEYTEDLYDQVGLSHDVKKFIRYNANKALMNLGFDPYFEEEDINPIVLNGLNTKTKSHDFFSMKGNGYKKATVEPLKDDDFYFEDEKEQI
notes: NrdF, β subunit of the class Ib ribonucleotide reductase of Bacillus subtilis; Fe-NrdF was used in the subunit titration, Mn-NrdF in SEC-SAXS and cryo-EM; also called Fe-NrdF; Mn-NrdF; source: produced in a similar manner as NrdE but without the tag cleavage steps, purified; reconstituted with Fe(III)2-Y• or Mn(III)2-Y•, MonoQ
As to B1, the “stoichiometry N” value in data set [5] is ~1 NrdF per NrdE (subunits).

B2: Bacillus subtilis class Ib ribonucleotide reductase beta subunit NrdF, His6-tagged, metal-reconstituted (enzyme)
chain: MTKIYDAANWSKHEDDFTQMFYNQNVKQFWLPEEIALNGDLLTWKYLGKNEQDTYMKVLAGLTLLDTEQGNTGMPIVAEHVDGHQRKAVLNFMAMMENAVHAKSYSNIFMTLAPTETINEVFEWVKQNKYLQKKAQMIVGLYKAIQKDDEISLFKAMVASVYLESFLFYSGFYYPLYFYGQGKLMQSGEIINLILRDEAIHGVYVGLLAQEIYNKQTEEKKAELREFAIDLLNQLYENELEYTEDLYDQVGLSHDVKKFIRYNANKALMNLGFDPYFEEEDINPIVLNGLNTKTKSHDFFSMKGNGYKKATVEPLKDDDFYFEDEKEQI
notes: NrdF, beta subunit of the class Ib ribonucleotide reductase of Bacillus subtilis; Fe-NrdF in the SAXS subunit titration, Mn-reconstituted NrdF in cryo-EM; also called Fe-NrdF
For B2, the binding result in data set [6] and in data set [7] was “binds” each time.

B3: Bacillus subtilis class Ib ribonucleotide reductase NrdE (α subunit), wild type, tagless (enzyme)
chain: MSQNQVPKWIQLNNEIMIQKDGKFQFDKDKEAVHSYFVDYINQNTVFFHNLKEKLDYLVENQYYEEEFLSLYSFEDIKEVFKTAYAKKFRFPSFMSAFKFYNDYALKTNDKKKILERYEDRISIVALFFANGDTEKAKEYVNLMINQEYQPSTPTFLNAGRKRRGELVSCFLLEVNDSLNDISRAIDISMQLSKLGGGVSLNLSKLRAKGEAIKDVENATKGVVGVMKLLDNAFRYADQMGQRQGSGAAYLNIFHRDINDFLDTKKISADEDVRVKTLSIGVVIPDKFVELAREDKAAYVFYPHTIYKEYGQHMDEMDMNEMYDKFVDNPRVKKEKINPRKLLEKLAMLRSESGYPYIMFQDNVNKVHANNHISKVKFSNLCSEVLQASQVSSYTDYDEEDEIGLDISCNLGSLNILNVMEHKSIEKTVKLATDSLTHVSETTDIRNAPAVRRANKAMKSIGLGAMNLHGYLAQNGIAYESPEARDFANTFFMMVNFYSIQRSAEIAKEKGETFDQYEGSTYATGEYFDKYVSTDFSPKYEKIANLFEGMHIPTTEDWKKLKAFVAEHGMYHSYRLCIAPTGSISYVQSSTASVMPIMERIEERTYGNSKTYYPMPGLASNNWFFYKEAYDMDMFKVVDMIATIQQHIDQGISFTLFLKDTMTTRDLNRIDLYAHHRGIKTIYYARTKDTGQDSCLSCVV
notes: NrdE, α subunit of the class Ib ribonucleotide reductase of Bacillus subtilis; holo-NrdE carries the co-purified dAMP ligand, apo-NrdE is nucleotide-free; same polypeptide; also called wt apo-NrdE (dAMP-free)
Consider B3, for which the “stoichiometry N” value in data set [8] came out at 2.
